The test system of assay [1] is proprotein convertase subtilisin/kexin type 9 (PCSK9). Description: PCSK9-targeted genome editing in mice, serum PCSK9 (ELISA). It counts as in vivo, Balb/c mice. The settings on record: Example 34, Fig. 13. The procedure:
Specifically, an RNA solution was first prepared to contain Cas9-mRNA (TriLink, 5moU-modified) and gRNA targeting proprotein convertase subtilisin/kexin type 9 (PCSK9) (SEQ ID NO: 3) at a mass ratio of 1:2 (N/P = 6.0). Using this RNA solution, in the same manner as Example 32, lipid nanoparticles encapsulating Cas9-mRNA and PCSK9-gRNA and having a composition of TxT-5-SA14/DSPC/chol/PEG-DMG = 50/3/47/1.5 (mol%) were prepared (lipid nanoparticles for PCSK9-targeted genome editing). […]
Subsequently, the prepared lipid nanoparticles for PCSK9-targeted genome editing were administered via tail vein injection to female Balb/c mice (4 weeks old) at doses of 0.3, 1.0, and 2.0 mg RNA/kg. […] The collected blood was allowed to stand at room temperature for 1 hour, followed by centrifugation at 4°C, 1,000 × g for 10 minutes. The supernatant was collected to obtain serum. The concentration of PCSK9 in the serum was measured using a commercially available ELISA kit (Mouse/Rat PCSK9 ELISA Kit, CircuLex). Calibration samples were prepared by serial dilution from 6 ng/mL to obtain solutions of 3, 1.5, 0.75, 0.375, 0.188, and 0.094 ng/mL, each in 300 µL volumes. Serum samples were diluted 100-fold. […] Finally, 100 µL of Stop Solution (CircuLex) was added, and absorbance at 450 nm and 540 nm was measured using a spectrophotometer (Varioskan Lux, Thermo Fisher Scientific).
(In general: An ELISA detects its analyte on a solid surface through an enzyme-linked reagent.)

Assay [2] has as its system spleen. Put plainly: Fluc activity in the spleen of mice administered Fluc mRNA-loaded lipid nanoparticles. It counts as in vivo, BALB/c mice. The settings on record: Example 22, Fig. 1; TxT/DSPC/chol/PEG-DMG=50/15/35/1.5 (mol%); 0.1 mg mRNA/kg intravenous; six hours after administration; comparison among TxT lipids. As for the experimental part: Lipid nanoparticles were administered to mice by intravenous injection into the tail vein using a 27G needle. Unless otherwise specified, BALB/c mice (4 to 5 weeks old, female) were used.
First, BALB/c mice (female, 4 weeks old) were intravenously injected with lipid nanoparticles encapsulating Fluc mRNA (Fluc mRNA-loaded lipid nanoparticles) at a dose of 0.1 mg mRNA/kg. Six hours after intravenous injection, the mice were euthanized, each tissue was collected, frozen in liquid nitrogen, and stored at -80°C. The tissues were homogenized in passive lysis buffer (manufactured by Promega) using a bead-type cell disruptor (Micro Smash MS-100R, manufactured by TOMY Seiko). Tissue debris was removed by centrifugation, and the supernatant was collected. Fluc activity in the supernatant was measured using the Luciferase Assay System (E1500, manufactured by Promega) according to the manufacturer's protocol. Luminescence was measured using a luminometer (Luminescencer-PSN, manufactured by ATTO). Protein concentration was determined using a commercially available assay kit (BCA Protein Assay Kit, manufactured by Pierce). Fluc activity was expressed as relative light units (RLU) per mg of protein. […]

Turning to `CCCCCCCN(CCCCCCC)C(=O)CCCC(=O)OCC(COC(=O)CCCC(=O)N(CCCCCCC)CCCCCCC)(COC(=O)CCCC(=O)N(CCCCCCC)CCCCCCC)NC(=O)CCN1CCCCC1` [TxT-5-5A14, 2-(((5-(diheptylamino)-5-oxopentanoyl)oxy)methyl)-2-(3-(piperidin-1-yl)propanamido)propane-1,3-diyl bis(5-(diheptylamino)-5-oxopentanoate)], the “PCSK9 knockout efficiency versus dose” value in assay [1] (0.3, 1.0, and 2.0 mg RNA/kg) is “dose-dependent increase in PCSK9 knockout efficiency”. The PCSK9 knockout activity result in assay [1] (dose of 2.0 mg RNA/kg tail vein, serum PCSK9 ten days after administration, N = 3 to 6) was “no less than 90%”.

On to `CCCCCCC(CCCC)CNC(=O)CCCC(=O)OCC(COC(=O)CCCC(=O)NCC(CCCC)CCCCCC)(COC(=O)CCCC(=O)NCC(CCCC)CCCCCC)NC(=O)CCN1CCCCC1` (stereo not drawn) [TxT-5-5A12β, 2-(((5-((2-butyloctyl)amino)-5-oxopentanoyl)oxy)methyl)-2-(3-(piperidin-1-yl)propanamido)propane-1,3-diyl bis(5-((2-butyloctyl)amino)-5-oxopentanoate)], for which, in assay [2], the “Fluc activity in the spleen” value is recorded as “highest Fluc activity in the spleen”.

For the origin of these results see patent EP4722195A1, “PH-SENSITIVE CATIONIC LIPID AND LIPID NANOPARTICLES” (National University Corporation Hokkaido University, priority 2023, dated 2024).
